Measurements reported in DBAASP.
Values after ≈ are worked out from the molar mass of the structure shown. Blank lines part the entries; values can stand above or below the compound they belong to.

Legend:
Assay in all cases: ≥ marks a high value that may be exact or a test limit, other limits are often not marked, values filed in µg/mL are converted to µM
Bacillus cereus = system: Bacillus cereus
Enterococcus faecalis = system: Enterococcus faecalis
Escherichia coli = system: Escherichia coli
Leuconostoc lactis = system: Leuconostoc lactis
Listeria innocua = system: Listeria innocua
Micrococcus luteus = system: Micrococcus luteus
Pasteurella multocida = system: Pasteurella multocida
Staphylococcus aureus = system: Staphylococcus aureus
[1] = system: Staphylococcus epidermidis
Streptococcus uberis = system: Streptococcus uberis
[2] = system: Pseudomonas aeruginosa ATCC 27853
[3] = system: Staphylococcus aureus ATCC 25923
[4] = system: Staphylococcus aureus ATCC 33591
[5] = system: Staphylococcus epidermidis ATCC 35984
Bacillus subtilis 168 = system: Bacillus subtilis 168
[6] = system: Candida albicans F7-39/IDE99
Escherichia coli B = system: Escherichia coli B
[7] = system: Micrococcus luteus CCM 144
Pseudomonas aeruginosa = system: Pseudomonas aeruginosa
[8] = system: Staphylococcus aureus ATCC 43300
[9] = system: Enterococcus faecalis ATCC 29212
[10] = system: Pseudomonas aeruginosa ATCC 15442
[11] = system: Staphylococcus aureus ATCC 29213
[12] = system: Staphylococcus aureus ATCC 6538
Micrococcus luteus A270 = system: Micrococcus luteus A270
[13] = system: Escherichia coli CVCC 1515
Escherichia coli K88 = system: Escherichia coli K88
Escherichia coli UB1005 = system: Escherichia coli UB1005
[14] = system: Salmonella enterica subsp. enterica serovar Typhimurium ATCC 14028
[15] = system: Staphylococcus epidermidis ATCC 12228
[16] = system: Bacillus subtilis ATCC 23857
[17] = system: Escherichia coli ATCC 25922
[18] = system: Staphylococcus aureus USA 300
Candida albicans = system: Candida albicans
[19] = system: Pseudomonas aeruginosa H103
[20] = system: Salmonella enterica serovar Typhimurium

SMILES: CC[C@H](C)[C@H](NC(=O)[C@H](C)NC(=O)[C@H](CCC(=O)O)NC(=O)[C@H](Cc1cnc[nH]1)NC(=O)[C@@H](N)Cc1ccccc1)C(=O)N[C@@H](C)C(=O)N1CCC[C@H]1C(=O)N[C@H](C(=O)N[C@H](C(=O)N[C@@H](Cc1cnc[nH]1)C(=O)N[C@@H](C)C(=O)N[C@@H](C)C(=O)N[C@H](C(=O)N[C@@H](CCCCN)C(=O)N[C@@H](C)C(=O)N[C@@H](CC(C)C)C(=O)N[C@H](C(=O)NCC(=O)N[C@@H](Cc1ccccc1)C(=O)N[C@@H](CC(C)C)C(=O)NCC(N)=O)C(C)C)C(C)C)C(C)C)C(C)C [FHEAIAPVVHAAVKALVGFLG]
- MIC (Bacillus cereus): ≥ 46.6 µM
- MIC (Enterococcus faecalis): ≥ 46.6 µM
- MIC (Escherichia coli): > 46.6 µM
- MIC (Leuconostoc lactis): 23.3 µM (≈ 50 µg/mL)
- MIC (Listeria innocua): ≥ 46.6 µM
- MIC (Micrococcus luteus): ≥ 46.6 µM
- MIC (Pasteurella multocida): ≥ 46.6 µM
- MIC (Staphylococcus aureus): > 46.6 µM
- MIC [1]: ≥ 46.6 µM
- MIC (Streptococcus uberis): ≥ 46.6 µM

SMILES: CC(C)C[C@H](NC(=O)[C@@H](N)Cc1ccccc1)C(=O)N[C@@H](CCCCN)C(=O)N[C@@H](CCCCN)C(=O)N[C@@H](C)C(=O)N[C@@H](CCCCN)C(=O)N[C@@H](CCCCN)C(=O)N[C@@H](Cc1ccccc1)C(=O)NCC(=O)N[C@@H](CCCCN)C(=O)N[C@@H](C)C(=O)N[C@@H](Cc1ccccc1)C(N)=O [FLKKAKKFGKAF]
- MIC [2]: 45.3 µM (≈ 64 µg/mL)
- MIC [3]: > 362 µM
- MIC [4]: ≥ 362 µM
- MIC [5]: ≥ 181 µM

SMILES: CC[C@H](C)[C@H](NC(=O)CN)C(=O)N[C@@H](CCSC)C(=O)N[C@@H](CO)C(=O)N[C@@H](CO)C(=O)N[C@@H](CC(C)C)C(=O)N[C@@H](CCSC)C(=O)N[C@@H](CCCCN)C(=O)N[C@@H](CCCCN)C(=O)N[C@@H](CC(C)C)C(=O)N[C@@H](CCCCN)C(=O)N[C@@H](CCCCN)C(=O)N[C@@H](Cc1cnc[nH]1)C(=O)N[C@H](C(=O)N[C@@H](C)C(=O)N[C@@H](CCCCN)C(N)=O)[C@@H](C)CC [GIMSSLMKKLKKHIAK]
- MIC (Bacillus subtilis 168): 7 µM (≈ 12.7 µg/mL)
- MIC [6]: 12 µM (≈ 21.7 µg/mL)
- MIC (Escherichia coli B): 26 µM (≈ 47.1 µg/mL)
- MIC [7]: 3 µM (≈ 5.44 µg/mL)
- MIC [2]: 6.4 µM (≈ 11.6 µg/mL)
- MIC (Pseudomonas aeruginosa): 17 µM (≈ 30.8 µg/mL)
- MIC [8]: > 100 µM
- MIC (Staphylococcus aureus): > 100 µM
- MIC [1]: 10 µM (≈ 18.1 µg/mL)

SMILES: CC[C@H](C)[C@H](NC(=O)[C@H](CC(C)C)NC(=O)[C@H](CCCCN)NC(=O)[C@@H](NC(=O)[C@@H](NC(=O)[C@H](Cc1cnc[nH]1)NC(=O)[C@@H]1CCCN1C(=O)[C@H](CC(C)C)NC(=O)[C@@H](NC(=O)[C@H](CCCCN)NC(=O)[C@H](C)NC(=O)[C@H](Cc1c[nH]c2ccccc12)NC(=O)[C@H](CC(C)C)NC(=O)[C@H](CO)NC(=O)[C@H](C)NC(=O)[C@H](CCSC)NC(=O)CN)C(C)C)C(C)C)C(C)C)C(=O)N[C@@H](CCCCN)C(=O)O [GMASLWAKVLPHVVKLIK]
- MIC (Bacillus subtilis 168): 4.7 µM (≈ 9.36 µg/mL)
- MIC [6]: 8.7 µM (≈ 17.3 µg/mL)
- MIC (Escherichia coli B): 2.3 µM (≈ 4.58 µg/mL)
- MIC [7]: 1.7 µM (≈ 3.38 µg/mL)
- MIC (Pseudomonas aeruginosa): 53.3 µM (≈ 106 µg/mL)
- MIC (Staphylococcus aureus): 6 µM (≈ 11.9 µg/mL)

SMILES: CC(C)C[C@H](NC(=O)[C@H](C)NC(=O)[C@H](Cc1cnc[nH]1)NC(=O)[C@H](Cc1cnc[nH]1)NC(=O)CNC(=O)[C@H](CC(C)C)NC(=O)[C@@H](N)Cc1cnc[nH]1)C(=O)N[C@@H](CC(=O)O)C(=O)N[C@@H](Cc1cnc[nH]1)C(=O)N[C@@H](CC(C)C)C(=O)N[C@@H](CC(C)C)C(=O)N[C@@H](CCCCN)C(=O)O [HLGHHALDHLLK]
- MIC [9]: > 8990 µM
- MIC [10]: ≥ 8990 µM
- MIC [3]: 8990 µM (≈ 12500 µg/mL)
- MIC [11]: > 8990 µM
- MIC [12]: 8990 µM (≈ 12500 µg/mL)
- MIC [5]: ≥ 8990 µM

SMILES: CC[C@H](C)[C@H](NC(=O)CNC(=O)[C@@H](N)CCSC)C(=O)N[C@H](C(=O)N[C@@H](C)C(=O)NCC(=O)N[C@H](C(=O)N[C@H](C(=O)N[C@@H](CCCCN)C(=O)N[C@H](C(=O)N[C@H](C(=O)N[C@@H](CCCCN)C(=O)N[C@@H](CO)C(=O)N[C@@H](CC(C)C)C(=O)N[C@H](C(=O)N[C@@H](CCC(=O)O)C(=O)N[C@@H](CCC(N)=O)C(=O)N[C@@H](Cc1ccccc1)C(=O)N[C@H](C(=O)NCC(=O)N[C@@H](CCCCN)C(=O)O)[C@@H](C)O)[C@@H](C)CC)[C@@H](C)CC)C(C)C)[C@@H](C)CC)[C@@H](C)CC)[C@@H](C)CC [MGIIAGIIKVIKSLIEQFTGK]
- MIC [16]: ≥ 128 µM
- MIC [17]: > 128 µM
- MIC [18]: ≥ 64 µM
- MIC [5]: ≥ 64 µM

The next lines start with the values.

- MIC (Escherichia coli): 78.4 µM (≈ 62.5 µg/mL)
- MIC (Listeria innocua): ≥ 39.2 µM
- MIC (Micrococcus luteus A270): ≥ 39.2 µM
SMILES: CC(C)C[C@H](NC(=O)[C@H](CO)NC(=O)[C@H](Cc1cnc[nH]1)NC(=O)[C@H](CO)NC(=O)[C@H](CC(C)C)NC(=O)[C@H](CC(C)C)NC(=O)[C@@H](N)CCCCN)C(=O)O [KLLSHSL]

- MIC (Bacillus subtilis 168): 2 µM (≈ 2.79 µg/mL)
- MIC [6]: 6 µM (≈ 8.37 µg/mL)
- MIC (Escherichia coli B): 4.3 µM (≈ 6 µg/mL)
- MIC [7]: 2.7 µM (≈ 3.77 µg/mL)
- MIC (Pseudomonas aeruginosa): 43.3 µM (≈ 60.4 µg/mL)
- MIC (Staphylococcus aureus): 7.3 µM (≈ 10.2 µg/mL)
SMILES: CC[C@H](C)[C@H](NC(=O)[C@H](C)NC(=O)CNC(=O)[C@H](Cc1c[nH]c2ccccc12)NC(=O)[C@H](CC(N)=O)NC(=O)[C@@H](N)CC(C)C)C(=O)N[C@@H](CC(C)C)C(=O)N[C@@H](CCCCN)C(=O)N[C@@H](CCCCN)C(=O)N[C@H](C(=O)N[C@H](C(=O)N[C@@H](CCCCN)C(N)=O)[C@@H](C)CC)[C@@H](C)CC [LNWGAILKKIIK]

- MIC [13]: 8 µM (≈ 11.4 µg/mL)
- MIC (Escherichia coli K88): 4 µM (≈ 5.71 µg/mL)
- MIC (Escherichia coli UB1005): 8 µM (≈ 11.4 µg/mL)
- MIC [2]: 16 µM (≈ 22.8 µg/mL)
- MIC [14]: 64 µM (≈ 91.3 µg/mL)
- MIC [15]: 16 µM (≈ 22.8 µg/mL)
SMILES: CC(C)C[C@H](NC(=O)[C@H](Cc1c[nH]c2ccccc12)NC(=O)[C@H](CCCCN)NC(=O)[C@H](C)NC(=O)[C@H](C)NC(=O)[C@H](C)NC(=O)[C@H](CCCCN)NC(=O)[C@H](C)NC(=O)[C@H](C)NC(=O)[C@H](C)NC(=O)[C@H](CCCCN)NC(=O)[C@H](Cc1c[nH]c2ccccc12)NC(=O)[C@@H](N)CC(C)C)C(N)=O [LWKAAAKAAAKWL]

- MIC (Candida albicans): 21.3 µM (≈ 29.9 µg/mL)
- MIC [9]: 5.3 µM (≈ 7.44 µg/mL)
- MIC (Escherichia coli UB1005): 5.3 µM (≈ 7.44 µg/mL)
- MIC [19]: ≥ 42.6 µM
- MIC [20]: 5.3 µM (≈ 7.44 µg/mL)
- MIC [3]: 1.3 µM (≈ 1.82 µg/mL)
- MIC [1]: 1.3 µM (≈ 1.82 µg/mL)
SMILES: CC[C@H](C)[C@H](NC(=O)[C@@H](N)CCCN=C(N)N)C(=O)N[C@@H](CCCN=C(N)N)C(=O)N[C@@H](CCCN=C(N)N)C(=O)N[C@@H](Cc1c[nH]c2ccccc12)C(=O)N[C@@H](CCCCN)C(=O)N[C@@H](Cc1ccccc1)C(=O)N[C@@H](CCCN=C(N)N)C(=O)N[C@@H](Cc1c[nH]c2ccccc12)C(=O)O [RIRRWKFRW]

- MIC [13]: 4 µM (≈ 5.71 µg/mL)
- MIC (Escherichia coli K88): 2 µM (≈ 2.85 µg/mL)
- MIC (Escherichia coli UB1005): 4 µM (≈ 5.71 µg/mL)
- MIC [2]: 16 µM (≈ 22.8 µg/mL)
- MIC [14]: 8 µM (≈ 11.4 µg/mL)
- MIC [15]: 8 µM (≈ 11.4 µg/mL)
SMILES: CC(C)C[C@H](NC(=O)[C@H](CCCCN)NC(=O)[C@H](C)NC(=O)[C@H](C)NC(=O)[C@H](C)NC(=O)[C@H](CCCCN)NC(=O)[C@H](C)NC(=O)[C@H](C)NC(=O)[C@H](C)NC(=O)[C@H](CCCCN)NC(=O)[C@H](CC(C)C)NC(=O)[C@@H](N)Cc1c[nH]c2ccccc12)C(=O)N[C@@H](Cc1c[nH]c2ccccc12)C(N)=O [WLKAAAKAAAKLW]
